Earlier results, collected in US8888736B2, “High shear application in medical therapy” (H R D Corporation, priority 2010, dated 2014).
In brackets after ≈: the same amount, converted by molar mass. Like-named read-outs stand apart in the source and are kept apart here. Blank lines part the entries; values can stand above or below the compound they belong to.

Columns and labels:
[1] = believed to average around

solubility (in water at 21° C.): 537 ppm
Compound: C1CC1 [cyclopropane]

solubility (in water at 21° C.): 0.678 % by weight
Compound: CCCl [ethylchloride]

Compound: ClC=C(Cl)Cl [trichloroethylene]
solubility (water at 20° C.): 0.1 g/100 ml

solubility (water at 20° C.): 0.0078 mol/L (≈ 503 µg/mL)
Compound: CCCl [chloroethane]

Compound: S [hydrogen sulfide]
toxic level in the body [1]: 300-350 ppm

Compound: C=COC=C [divinyl ether]
solubility (water at 37° C.): 0.0749 mol/L (≈ 5250 µg/mL)

Compound: C=C [ethylene]
solubility (water at 20° C.): 0.015 g/100 ml
